According to US7169787B2, “7-azaindoles, use thereof as phosphodiesterase 4 inhibitors and method for producing the same” (Elbion AG, priority 2000, dated 2007):

Experiments:
PDE 4 = assay: Inhibition of phosphodiesterase 4 (enzyme preparation from human PMNL, [3H]-cAMP); assay type: biochemical; conditions: PDE 4 from human PMNL cytosol, 0.5 μM [3H]-cAMP
Protocol: The PDE 4 activity is determined in enzyme preparations from human polymorphonuclear […] (PMNL) and the PDE 2, 3 and 5 activity is determined with PDE from human thrombocytes. Human blood was anti-coagulated with citrate. By centrifuging at 700×g for 20 minutes at room temperature, the thrombocyte-rich plasma in the supernatant is separated from the erythrocytes and leukocytes. The thrombocytes are lysed by ultrasound and used in the PDE 3 and PDE 5 assays. For the determination of the PDE 2 activity, the cytosolic thrombocyte fraction is purified on an anionic exchange column by means of NaCl gradients and the PDE 2 peak is obtained for the assay. The PMNLs for the PDE 4 determination are isolated by a subsequent dextran sedimentation, followed by a gradient centrifugation with Ficoll-Paque. After the cells have been washed twice, the erythrocytes, still contained, are lysed within 6 minutes at 4° C. by the addition of 10 mL of hypotonic buffer (155 mM of NH4Cl, 10 mM of NaHCO3, 0.1 mM of EDTA, pH=7.4). The PMNLs, which are still intact, are washed twice with PBS and lysed with ultrasound. The supernatant of a one-hour centrifugation at 4° C. at 48,000×g contains the cytosolic fraction of the PDE 4 and is used for the PDE 4 measurements.
The phosphodiesterase activity is determined using the method described by Thompson et al. with some modifications (Thompson, W. J. and M. M. Appleman, Assay of cyclic nucleotide phosphodiesterase and resolution of multiple molecular forms of the enzyme, Adv. Cycl. Nucl. Res. 1979, 10, 69–92).
The reaction mixtures contain 50 mM of tris hydrochloride (pH 7.4), 5 mM of magnesium chloride, the inhibitors in various concentrations, the corresponding enzyme preparation as well as the further components necessary for determining the individual isoenzymes (see below). The reaction is started by the addition of the substrate, 0.5 μM of [^3H]-cAMP or [^3H]-cGMP (approximately 6000 CPM per test). The final volume is […]. Test substances are mixed as stock solutions in DMSO. The DMSO concentration in the reaction mixture is 1% v/v. The PDE activity is not affected by this concentration of DMSO. After the reaction is started by the addition of substrate, samples are incubated for 30 minutes at 37° C. The reaction is stopped by heating the test tubes for 2 minutes at 110° C. The samples remain for a further 10 minutes in ice. The addition of 30 μL of 5′-nucleotidase (1 mg/mL, from a poisonous snake suspension from Crotalus adamanteus) is followed by a 10-minutes incubation at 37° C. The samples are stopped on ice, in each case 400 μL of a mixture of Dowex, water and ethanol (1+1+1) is added, mixed well and incubated once again for 15 minutes on ice. The reaction vessels are centrifuged for 20 minutes at 3000×g. Aliquots of the supernatant (200 μL) are transferred directly to scintillation vessels. After the addition of 3 mL of scintillator, the samples are measured in the beta counter.
[^3H]-cAMP is used as substrate for the determination of the PDE 4, 3 and 2 activity and [^3H]-cGMP is used as substrate for the determination of the PDE 5 activity. The enzyme activities, which are nonspecific in each case, are determined in the presence of 100 μM of Rolipram for the determination of PDE 4 and in the presence of 100 μM of IBMX for the determination of the PDE 3 and 5 and subtracted from the test values. The incubation formulations of the PDE 3 assays contained 10 μM of Rolipram, in order to inhibit possible contaminations by PDE 4. The PDE 2 is tested with an SPA assay of the Amersham Company. The assay is carried out in the presence of the activator of the PDE 2 (5 μM of cGMP).

Lewis Rats = assay: Inhibition of the lipopolysaccharide (LPS)-induced lung neutrophilia; assay type: in vivo, rat; conditions: 1 mg/kg p.o., 2 h before LPS provocation; BAL 6 h after provocation
Protocol: The inhibition of pulmonary neutrophil infiltration by the inventive substances is tested on male Lewis Rats (250–350 g). On the day of the experiments, the animals are placed individually in open 1 L Plexiglas boxes, which are connected to a head-nose exposure device. The animals are exposed to an aerosol of a lipopolysaccharide suspension (100 μg LPS/mL of 0.1% hydroxylamine solution) in PBS (LPS provocation). The LPS/hydroxylamine aerosol is nebulized by a nebulizer (Bird Micronebulizer, Palm Springs Calif., USA), which is operated with compressed air (0.2 MPa). The exposure time is 40 minutes, normal controls being nebulized also for 40 minutes with an aerosol of 0.1% hydroxylamine solution in PBS.
Six hours after the LPS provocation, there is a maximum, massive migration of neutrophil granulocytes into the lungs of the animals. At this time, the animals are anesthetized with an excess of ethyl urethane (1.5 g/kg of body weight i.p.) and a bronchoalveolar lavage (BAL) with 3×4 mL of Hank's balance solution is carried out. The total cell count and the number of neutrophil granulocytes of the pooled BAL liquid are subsequently determined with an automatic cell differentiation instrument (Bayer Diagnostics Technicon HIE). For each animal, the neutrophiles (NEUTRO) in the BAL are calculated in millions/animal: NEUTRO/μl×BAL recovery (mL)=NEUTRO/animal.
For each test, 2 control groups were also run (nebulization with 0.1% hydroxylamine solution in PBS and nebulization with 100 μg LPS/mL of 0.1% hydroxylamine solution in PBS).
The percentage inhibition of the neutrophilia of the experimental group, treated with substance, was calculated according to the following formula: {((LPSC−SC)−(LPSD−SC))/(LPSC−SC)}×100%=% inhibition SC=vehicle-treated control group challenged with 0.1% hydroxylamine solution; LPSC=vehicle-treated control group challenged with LPS (100 μg/mL 0.1% hydroxylamine solution); LPSD=substance-treated experimental group challenged with LPS (100 μg/mL 0.1% hydroxylamine solution) […]

SMILES: Cc1ccc(Cn2cc(C(=O)C(=O)Nc3c(Cl)cncc3Cl)c3cccnc32)cc1 [Example 22]
- IC50 (PDE 4): 2 nM
- Inhibition of neutrophilia (table titled Inhibition of Eosinophilia) (Lewis Rats): 64%
- melting point: 176 to 178 °C
